# Measured values as given in US20170247449A1, “THERAPEUTIC METHOD AND MEDICAMENT FOR CANCER PATIENTS BY FOLR1-TARGETING DRUG AND AN ANTAGONIST FOR FOLIC ACID METABOLISM” (KYOWA HAKKO KIRIN CO., LTD, priority 2014, published 2017).
# B1: HuRA15-7CTAcc: anti-human FOLR1 humanized antibody, VH SEQ ID NO: 8, VL SEQ ID NO: 9, expressed in FUT8 knocked out CHO/DG44 (WO2014/087863) (antibody, V domains shown)
# VH: EVQLVESGGGLVQPGGSLRLSCAASGFTFTDFYMNWVRQPPGKAPEWLGFIRNKANGYTTEFNPSVKGRFTISRDNSKNSLYLQMNSLKTEDTATYYCARTLYGYAYYYVMDAWGQGTLVTVSS
# VL: DIQMTQSPSSLSASLGDRVTITCRTSEDIFRNLAWYQQKPGKAPKLLIYDTNRLADGVPSRFSGSGSGTDYTLTISSLQPEDFATYFCQQYDNYPLTFGQGTKLEIK
# modifications: afucosylated; nonS_HuRA15-7CTVH_AA; nonS_HuRA15-7LV3_AA
# Assays:
# [1] = test system: NSCLC; conditions: patients with NSCLC; clinical trials terminated; cited from earlier work
# [2] = test system: NSCLC cell line NCI-H2228; assay: ADCC activity against pemetrexed-treated NCI-H2228 using healthy donor PBMCs (LDH release); format: cell-based, human; conditions: for ADCC activity against NCI-H2228 cultured with pemetrexed versus cultured without pemetrexed: 1000 nmol/L pemetrexed, P<0.05
# Experimental: (§1) These cells were adjusted at 1×10^4 cells/50 μL using ADCC measurement medium [phenol red-free RPMI1640 (GIBCO), 5% inactivated dFCS (GIBCO)] as target cell solutions.
# (§2) Next, heparin-treated peripheral blood of a healthy donor was loaded into a LeucoSep lymphocyte separation tube (Greiner) filled with Lymphoprep (Cosmo Bio), and centrifuged at 1000×g for 20 minutes at room temperature.
# (§3) After the centrifugation, the plasma fraction was removed, and the peripheral blood mononuclear cell (PBMC) layer was collected. Then, the cells were washed with the ADCC measurement medium. The PBMCs were adjusted at 2.5×10^5 cells/50 μL using the ADCC measurement medium as an effector cell solution.
# HuRA15-7CTAcc antibody and MORAb-003 (farletuzumab) were used as anti-human FOLR1 humanized antibodies.
# (§4) Fifty μL of each the target cell solution, the effector cell solution, and the antibody solution, which were prepared as described above, were mixed in a U-bottom 96-well plate, so that the total volume of each well was 150 μL. After mixing the wells, the cells were precipitated by centrifugation at 50×g for five minutes at room temperature. These cells were reacted for four hours at 37° C.
# (§5) After mixing the wells, the cells were precipitated again by centrifugation. Then, 50 μL of the supernatant of each well was dispensed to a new 96-well plate. The lactate dehydrogenase (LDH) activities of the dispensed supernatant solutions were measured using CytoTox 96 Non-Radioactive Cytotoxicity Assay (Promega) according to the instruction.
# (§6) The ADCC activity was calculated by the following equation after subtracting the measured LDH activity value of the well containing the ADCC measurement medium only from the measured LDH activity value of all wells. These values were determined as the corrected LDH activity value of each well.
# ADCC Activity (%)=100×(Exp−ET spo)/(T total−D−T spo) [Chem. 1] […]
# The ADCC activity against the NSCLC cell line NCI-H2228 was evaluated by a similar method to that in Example 3 except for using pemetrexed at the final concentration of 0, 20 or 1000 nmol/L in the culture.
# [3] = test system: ovarian cancer cell line MCAS; assay: ADCC activity against pemetrexed-treated MCAS using healthy donor PBMCs (LDH release); format: cell-based, human; conditions: for ADCC activity against MCAS cultured with pemetrexed versus cultured without pemetrexed: 20 nmol/L pemetrexed, P<0.05
# Experimental: as §1, §2, §3
# HuRA15-7CTAcc antibody and MORAb-003 (farletuzumab) were used as anti-human FOLR1 humanized antibodies. The antibody solutions were prepared at 0.1, 1, 10, 100 and 1000 ng/mL with the ADCC measurement medium, so that the final concentrations of the assay became 0.033, 0.33, 3.3, 33 and 333 ng/mL.
# as §4, §5, §6
# ADCC Activity (%)=100×(Exp−ET spo)/(T total−D−T spo) [Chem. 1]
# Here, Exp is the corrected LDH activity value of a sample; ET spo is the corrected LDH activity value of the well in which the effector cell solution and the target cell solution were mixed; T total is the corrected LDH activity value of the well in which the target cells and the Lysis Solution attached to CytoTox 96 Non-Radioactive Cytotoxicity Assay were mixed; D is the corrected LDH activity value of the Lysis Solution; and T spo is the corrected LDH activity value of the well containing the target cells only.
# [4] = test system: ovarian cancer; conditions: cited from earlier work
# [5] = test system: FOLR1 expression in OVCAR-3; assay: Expression level of FOLR1 in ovarian cancer cell line after incubation with pemetrexed; format: cell-based, human; conditions: OVCAR-3 [FIG. 2(C)], low folic acid medium, regardless of the final pemetrexed concentration
# Experimental: (§7) After culturing each cell line under the above conditions, cells were detached using TrypLE Express, washed with phosphate buffer saline (PBS) and then suspended in FCM buffer (PBS containing 1 mmol/L EDTA, 0.05% sodium azide and 5% inactivated FCS).
# (§8) Next, the cells were seeded in a 96-well plate at 1×10^5 cells per well and centrifuged at 1700 rpm for one minute. After removing the supernatant, an anti-human FOLR1 humanized antibody (HuRA15-7CTAcc antibody) (WO2014/087863) which was prepared at 10 μg/mL with FCM buffer was added to the cells and reacted for 30 minutes at 4° C.
# (§9) After washing the cells, Anti-Human IgG-FITC (Jackson) which was diluted 100 times with the FCM buffer was added and reacted for 30 minutes at 4° C. After washing the cells again, the cells were suspended in the FCM buffer. The fluorescence intensities were analyzed with a flow cytometer (Beckman Coulter, Inc., FC500MPL) to determine the mean fluorescence intensity (MFI) of each cell.
# (§10) First, SKOV-3 [American Type Culture Collection (hereinafter referred to as ATCC) No. HTB-77], MCAS (JCRB cell No. JCRB0240), NIH:OVCAR-3 (ATCC No. HTB-161) and IGR-OV1 (National Cancer Institute), which are ovarian cancer-derived cell lines, were cultured in the culture medium.
# [6] = test system: FOLR1 expression in MCAS; assay: as above; format: cell-based, human
# Experimental: as §7, §8, §9, §10
# [7] = test system: FOLR1 expression in SKOV-3; assay: as above; format: cell-based, human
# Experimental: as §7, §8, §9, §10
# [8] = test system: FOLR1 expression in IGR-OV1; assay: as above; format: cell-based, human
# Experimental: as §7, §8, §9, §10
# [9] = test system: FOLR1 expression in HEC-1-B; assay: Expression level of FOLR1 in endometrial cancer cell line after incubation with pemetrexed; format: cell-based, human
# Experimental: (§11) Endometrial cancer-derived cell line MES-SA (ATCC No. CRL-1976) and HEC-1-A (ATCC No. HTB-112) were cultured in McCoy's 5A medium (ATCC) containing 10% FCS (GIBCO), and HEC-1-B (ATCC No. HTB-113) was cultured in Eagle's Minimum Essential Medium (ATCC) containing 10% FCS (GIBCO).
# (§12) Also, a flow cytometer manufactured by Becton, Dickinson and Company (FACSVerse) was used instead of the flow cytometer manufactured by Beckman Coulter, Inc. (FC500MPL).
# [10] = test system: FOLR1 expression in HEC-1-A; assay: as above; format: cell-based, human
# Experimental: as §11, §12
# [11] = test system: FOLR1 expression in MES-SA; assay: as above; format: cell-based, human
# Experimental: as §11, §12
# [12] = test system: FOLR1 expression in NCI-H2228; assay: Expression level of FOLR1 in NSCLC cell line after incubation with pemetrexed (flow cytometry, MFI); format: cell-based, human; conditions: NCI-H2228, low folic acid medium, 72 hours
# Experimental: (§13) NSCLC cell lines such as NCI-H522 [American Type Culture Collection (hereinafter referred to as ATCC) No. CRL-5810], NCI-H838 (ATCC No. CRL-5844), NCI-H1437 (ATCC No. CRL-5872) and NCI-H2228 (ATCC No. CRL-5935) were cultured in a culture medium [RPMI1640 (GIBCO), 10% inactivated bovine serum (FCS, GIBCO)].
# (§14) Next, cells were detached from culture flasks using TrypLE Express (GIBCO) and suspended in a folic acid-free medium [RPMI 1640 folate-free (GIBCO), 10% inactivated dialyzed FCS (dFCS, GIBCO)]. The cells were seeded to 25-cm^2 tissue culture (TC) flasks at 2.5×10^5 cells/4 mL.
# as §7, §8, §9
# [13] = test system: FOLR1 expression in NCI-H522; assay: as above; format: cell-based, human; conditions: NCI-H522, low folic acid medium, 0, 10 or 1000 nmol/L pemetrexed, 72 hours
# Experimental: as §13, §14, §7, §8, §9
# [14] = test system: FOLR1 expression in NCI-H838; assay: as above; format: cell-based, human; conditions: NCI-H838, low folic acid medium, 0, 10 or 1000 nmol/L pemetrexed, 72 hours
# Experimental: as §13, §14, §7, §8, §9
# [15] = test system: FOLR1 expression in NCI-H1437; assay: as above; format: cell-based, human; conditions: NCI-H1437, low folic acid medium, 72 hours
# Experimental: as §13, §14, §7, §8, §9
# [16] = in vitro; conditions: human, MCAS ovarian cancer cells
# Experimental: Then, detached cells were suspended in the folic acid-free medium, and the cells were seeded to 175-cm^2 TC flasks at 25×10^5 cells/28 mL. After 24-hour incubation, 14 mL of the 3× low folic acid medium was added, and the final folic acid concentration was adjusted at approximately 22.7 nmol/L. Then, pemetrexed was added to the culture at the final concentration of 0 or 20 nmol/L, and the cells were cultured for further 72 hours.
# The cultured cells were detached from the culture flasks using 0.02% EDTA solution (Nacalai), and the cell counts and the viability were measured using Vi-CELL XR 2.01 (Beckman Coulter).
# [17] = 1000 nmol/L pemetrexed in low folic acid medium
# [18] = low folic acid medium, 0, 10 or 1000 nmol/L pemetrexed, 72 hours
molecule,measurement,setting,value
"MORAb-003: existing anti-human FOLR1 humanized IgG1 antibody, sequences described in WO2005/080431",clinical benefit,[1],did not show benefit
same,ADCC activity against NCI-H2228 cultured with pemetrexed versus cultured without pemetrexed,"[2]; antibody 0.0033, 3.3, 33 and 333 ng/mL",significantly higher
same,ADCC activity against MCAS cultured with pemetrexed versus cultured without pemetrexed,"[3]; healthy donor 2-derived PBMCs, antibody 0.33, 3.3, 33 and 333 ng/mL",significantly higher
same,clinical benefit,"[4]; patients with platinum-resistant ovarian cancer, clinical trials terminated",did not show benefit
same,clinical response,[4]; patients with platinum-sensitive recurrent ovarian cancer,responses in some patients
Nc1nc2[nH]cc(CCc3ccc(C(=O)N[C@@H](CCC(=O)O)C(=O)O)cc3)c2c(=O)[nH]1 [pemetrexed],expression level of FOLR1 compared to incubation in the culture medium,[5],did not increase
same,expression level of FOLR1 relative to incubation in the culture medium (NC),[6]; [17],about 7 times
same,"expression level of FOLR1, dependence on pemetrexed concentration","[6]; low folic acid medium, 0, 10 or 1000 nmol/L pemetrexed",higher concentration of pemetrexed induced higher expression level of FOLR1
same,expression level of FOLR1 relative to incubation in the culture medium (NC),"[7]; SKOV-3, 1000 nmol/L pemetrexed in low folic acid medium",about 2.5 times
same,"expression level of FOLR1, dependence on pemetrexed concentration","[7]; SKOV-3, low folic acid medium, 0, 10 or 1000 nmol/L pemetrexed",higher concentration of pemetrexed induced higher expression level of FOLR1
same,expression level of FOLR1 relative to incubation in the culture medium (NC),"[8]; IGR-OV1, 1000 nmol/L pemetrexed in low folic acid medium",about 2.5 times
same,"expression level of FOLR1, dependence on pemetrexed concentration","[8]; IGR-OV1, low folic acid medium, 0, 10 or 1000 nmol/L pemetrexed",higher concentration of pemetrexed induced higher expression level of FOLR1
same,expression level of FOLR1 relative to culture in the culture medium (NC),[9]; [17],approximately 2 times
same,"expression level of FOLR1, dependence on pemetrexed concentration",[9]; [18],higher pemetrexed treatment induced higher expression level of FOLR1
same,expression level of FOLR1 relative to culture in the culture medium (NC),[10]; [17],approximately 3 times
same,"expression level of FOLR1, dependence on pemetrexed concentration",[10]; [18],higher pemetrexed treatment induced higher expression level of FOLR1
same,expression level of FOLR1 relative to culture in the culture medium (NC),[11]; [17],approximately 3.5 times
same,"expression level of FOLR1, dependence on pemetrexed concentration",[11]; [18],higher pemetrexed treatment induced higher expression level of FOLR1
same,expression level of FOLR1 relative to incubation with 0 nmol/L pemetrexed,[12]; 10 nmol/L pemetrexed,about 1.5 times
same,expression level of FOLR1 relative to incubation with 0 nmol/L pemetrexed,[12]; 1000 nmol/L pemetrexed,~2 times
same,"expression level of FOLR1, dependence on pemetrexed concentration",[13],higher concentration of pemetrexed induced higher expression level of FOLR1
same,"expression level of FOLR1, dependence on pemetrexed concentration",[14],higher concentration of pemetrexed induced higher expression level of FOLR1
same,expression level of FOLR1 relative to incubation with 0 nmol/L pemetrexed,[15]; 10 nmol/L pemetrexed,about 1.5 times
same,expression level of FOLR1 relative to incubation with 0 nmol/L pemetrexed,[15]; 1000 nmol/L pemetrexed,~2 times
same,"viability at 72 h, 20 nmol/L",[16],96.6%
B1,ADCC activity against NCI-H2228 cultured with pemetrexed versus cultured without pemetrexed,[2]; all the antibody concentrations,significantly higher
same,"ADCC activity, dependence on antibody concentration","[2]; NCI-H2228, PBMCs of a healthy donor",cytotoxicity was observed in association with the antibody concentration
same,ADCC activity against MCAS cultured with pemetrexed versus cultured without pemetrexed,"[3]; healthy donor 1-derived PBMCs, all the antibody concentrations",significantly higher
same,ADCC activity against MCAS cultured with pemetrexed versus cultured without pemetrexed,"[3]; healthy donor 2-derived PBMCs, antibody 0.033 and 0.33 ng/mL",significantly higher
same,"ADCC activity, dependence on antibody concentration","[3]; MCAS, PBMCs of two healthy donors, antibody 0.033-333 ng/mL",cytotoxicity was observed in association with the antibody concentration
